# Source: US20140024716A1, “Composition Comprising S-Allyl-L-Cysteine as Active Ingredient for Preventing or Treating Gastrointestinal Disorders” (PHARMAKING CO., LTD., priority 2009, published 2014)
# Several values for one entry are separate records, joined by “and”; a condition that tells them apart may be missing. Equal values may be shown once. Entries after “also recorded” stand apart in the source; their conditions may differ.
# Legend:
# [1] = tested on: gastric lesions of rats induced by aspirin; experiment: Aspirin-induced gastric lesion animal model; format: in vivo, Sprague-Dawley rats; details: for Ulcer Area (mm^2), group mean: n = 6
# From the text: (§1) SAC was purchased from TCI Chemical Co. (Tokyo, Japan). Sterile water for injection (Model No. 73H5F21, Dae Han Pharmaceutical Co. Ltd.) was used as a vehicle, and Stillen® was used as a positive control material. 0.5% CMC-Na and sterile water for injection were used as excipients for Stillen®. Hydrochloric acid was purchased from Samjung Chemical, Co., ethanol was purchased from Baker, Co., aspirin was purchased from Sigma, Co., and indomethacin was purchased from Sigma, Co.
# (§2) 7 to 8-week old male specific pathogen free (SPF) HsdKoat:Sprague-Dawley®™ SD®™rats (weight of 7-week old males was in the range of 208.44 to 227.39 g, and weight of 8-week old maleswas in the range of 223.85 to 245.03 g, purchased from Koatech, Co. Ltd., Gyunggido, Korea) were quarantined and acclimated in the Animal Lab for 7 days. The rats were bred at a temperature of 23 3° C., at a relative humidity of 55 15%, with light for 12 hours (light turned on at 08:00 and light turned off at 20:00) while air was ventilated 10 to 20 times/hr in the Animal Experiment Lab of Gyeonggi Bio-Center. Other environments for breeding which might influence the test for the entire test period were not considered for use. The rats were given free access to a solid laboratory diet (Harlan Co. Ltd., USA. Teklad certified global 18% protein rodent diet, 2918C) that was supplied by Folas International. […] The rats were given free access to tap water that was sterilized using a UV sterilizer and a micro filter with water bottles.
# (§3) The rats were classified into a vehicle control group G1 to which only a vehicle was administered, a experimental group G2 to which 100 mg/kg of SAC was administered, a experimental group G3 to which 200 mg/kg of SAC was administered, a experimental group G4 to which 400 mg/kg of SAC was administered, and a positive control group G5 to which 100 mg/kg of Stillen® (55.6 mg/kg as an active ingredient) as a positive control material were administered. Each group included 8 rats in a hydrochloric acid-ethanol-induced animal model (Experiment Example 7) and included 6 rats in an aspirin-induced animal model (Experimental Example 8) and in an indomethacin-induced animal model (Experimental Example 9).
# (§4) The test substance was directly administered to the stomach using an injection tube equipped with a sonde for oral administration in a single dose once per day.
# The rats were fasted for more than 24 hours in a normal environment, the test substance was administered, and 200 mg/kg of aspirin in 0.15 mol/L HCl was orally administered after 30 minutes. After three hours from the aspirin administration, the rats were sacrificed under ether anesthesia and their stomachs including parts of the duodenum and esophagus were isolated. The stomachs were was fixed for 10 minutes by injecting 12 ml of 2% formalin. The greater curvature of each stomach was incised and unfolded, photographs of the gastric grandular region were taken, and then the areas of the lesions were measured using an image analyzer.
# Gastric lesion inhibiting rate (%)=(average area of the vehicle control group-area of gastric lesion of each animal)/average area of the vehicle control group×100.
# [2] = tested on: TNF-α; experiment: Serum TNF-α in Helicobacter pylori-infected mice; format: in vivo, C57BL/6 mice; details: SAC1 and SAC2 groups (200 and 400 mg/kg SAC), p<0.09
# Experimental: (§5) 8-week old male C57BL/6 mice were classified into 4 groups, i.e., a positive control group (to which Helicobacter pylori was administered; PC), a negative control group (to which saline was administered; NC), experimental group 1 (to which Helicobacter pylori and 200 mg/kg of SAC were administered; SAC1), and experimental group 2 (to which Helicobacter pylori and 400 mg/kg of SAC were administered; SAC2). Each group had 10 mice. White powdered SAC was diluted in tap water to concentrations of 20 mg/mL and 40 mg/mL and 10 μl/g (body weight) of the diluted SAC was orally administered to the mice of the SAC1 and SAC2 groups three times a week for 10 weeks. The mice were given free access to tap water for the entire test period. The Helicobacter pylori was collected with saline to a concentration of 1×10^9 CFU/mL, and 0.2 mL of the diluted Helicobacter pylori was orally administered to each mouse for 8 weeks from 2 weeks after SAC administration. […]
# In order to observe the effect of SAC on an inflammation factor of TNF-α in serum, a commercially available mouse TNF-α antibody analysis kit Microplate (R&D systems Inc., USA) was used and concentrations of TNF-α in serum of mice were measured according to the manuals of the kit.
# [3] = tested on: Helicobacter pylori; experiment: Histological change of stomach caused by Helicobacter pylori (H&E staining); format: in vivo, C57BL/6 mice
# Experimental: as §5, with “administration. The mice were fasted for 8 hours before the infection, and 0.15 mL of 0.2 M sodium bicarbonate (NaHCO3) was administered to each mouse 10 minutes before the administration of Helicobacter pylori in order to neutralize acidified stomach due to the fasting. The same amount of saline instead of the infectious substances was administered into the NC group. The mice of all groups were fed with a normal diet. After a 10-week test period, autopsies were performed on all mice, and samples of blood and internal organs were collected for tissue pathological analyses.” for “administration.”
# A stomach sample was fixed with 10% formalin and a paraffin block was formed. […] In addition, the number of eosinophils was checked from a region where the esophagus and stomach join and counted from three regions of the stomach, i.e., cardia, gastric pit, and gastric crypt of lamina propria. The number of mitotic figures was counted from two regions selected from the entire antrum from cardia to pylorus. Thus two samples were obtained from each animal and evaluated with a 400× magnification, and an average value of each group was calculated.
# [4] = tested on: gastric lesions of rats induced by indomethacin; experiment: Indomethacin-induced gastric lesion animal model; format: in vivo, Sprague-Dawley rats
# From the text: as §1, §2, §3, §4
# The rats were fasted for more than 24 hours in a normal environment, SAC was administered, and 25 mg/kg of indomethacin in distilled water was orally administered after 30 minutes. After six hours from the indomethacin administration, the rats were sacrificed under ether anesthesia and their stomachs including parts of the duodenum and esophagus were isolated. The stomachs were fixed for 10 minutes by injecting 12 ml of 2% formalin, the greater curvature of each stomach was incised and unfolded, photographs of the lesions were taken, and then the areas of the lesions were measured using an image analyzer.
# The gastric lesion inhibiting rate (%) was calculated in the same manner as in Experimental Example 8.
compound,measurement,setting,value
"C=CCSC[C@H](N)C(=O)O [SAC, S-allyl-L-cysteine]",Ulcer area of individual animal (Animal number 1-6),[1]; G2: 100 mg/kg SAC,91.68 and 44.12 and 40.95 and 63.52 (2×) and 64.67
same,"Ulcer Area (mm^2), group mean","[1]; G2: 100 mg/kg SAC oral, 30 min before 200 mg/kg aspirin",68.6±25.94 mm^2 and 68.6 mm^2
same,Ulcer area of individual animal (Animal number 1-6),[1]; G3: 200 mg/kg SAC,46.29 and 19.37 and 5.41 and 27.07 (2×) and 43.86
same,"Ulcer Area (mm^2), group mean",[1]; G3: 200 mg/kg SAC,31.4±16.99 mm^2 and 31.4 mm^2
same,Ulcer area of individual animal (Animal number 1-6),[1]; G4: 400 mg/kg SAC,63.26 and 9.34 and 70.28 and 40.03 (2×) and 11.58
same,"Ulcer Area (mm^2), group mean",[1]; G4: 400 mg/kg SAC,32.5±29.78 mm^2 and 32.5 mm^2
same,gastric lesion inhibiting rate (%) up to,[1]; highest rate over SAC doses,about 85%
same,serum TNF-α versus PC group,[2],reduced; also recorded: less than that of the PC group
same,number of eosinophils in stomach versus PC group,[3]; SAC1 and SAC2 groups (200 and 400 mg/kg SAC),significantly reduced; also recorded: less than that of the PC group
same,number of eosinophils in stomach versus PC group,"[3]; SAC1 group (200 mg/kg SAC), p<0.05",significantly less than that of the PC group
same,number of mitotic figures,[3]; SAC2 group (400 mg/kg SAC),slightly reduced
same,gross finding of stomach,[4]; 200 mg/kg and 400 mg/kg SAC,light gastric lesions and no bleedings
same,Ulcer area of individual animal (Animal number 1-6),[4]; G2: 100 mg/kg SAC,1.3 and 1.6 and 1.5 and 9.4 and 2.3
same,"Ulcer Area (mm^2), group mean","[4]; G2: 100 mg/kg SAC oral, 30 min before 25 mg/kg indomethacin",3.2±3.47 mm^2 and 3.2 mm^2
same,Ulcer area of individual animal (Animal number 1-6),[4]; G3: 200 mg/kg SAC,0.0 and 0.3 and 0.9 and 0.6 and 0.7 and 0.4
same,"Ulcer Area (mm^2), group mean","[4]; G3: 200 mg/kg SAC, n = 6",0.5±0.30 mm^2 and 0.5 mm^2
same,Ulcer area of individual animal (Animal number 1-6),[4]; G4: 400 mg/kg SAC,0.8 and 0.4 and 0.1 (2×) and 0.2 and 1.0
same,"Ulcer Area (mm^2), group mean","[4]; G4: 400 mg/kg SAC, n = 6",0.4±0.36 mm^2 and 0.4 mm^2
same,gastric lesion inhibiting rate (%) up to,[4]; highest rate over SAC doses,about 94%
